Test results from patent US11840686B2, “Modulation of prekallikrein (PKK) expression” (Ionis Pharmaceuticals, Inc., priority 2013, dated 2023).
Strand notation (5' to 3'): a small letter for the sugar, then the base; units joined by * are phosphorothioate-linked, units joined directly phosphodiester-linked; [ ] holds rarer units or linkages, { } end groups; capitals alone tell only the bases. e = 2'-O-(2-methoxyethyl) (MOE); [5mC] = 5-methylcytosine; d = 2'-deoxy (DNA)

Tested on: human PKK mRNA
Assay: Antisense inhibition of human PKK mRNA in HepaRG cells, 5,000 nM (Example 2)
Type: cell-based
Settings: HepaRG cells, electroporation, 5,000 nM antisense oligonucleotide, approx. 24 hours, primer probe set RTS3454, relative to untreated control cells
Method in brief: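 Percent inhibition of PKK mRNA is relative to untreated control, with qRT-PCR (probe set RTS3454) values adjusted to total RNA by RIBOGREEN. Oligonucleotides, fully phosphorothioate 2′-MOE gapmers, were delivered at 5,000 nM by electroporation into 20,000 HepaRG cells/well for about 24 h.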

Substance | % inhibition (Table 11) [%] | % inhibition (Table 12) [%]
546379 (antisense e[5mC]*eT*e[5mC]*e[5mC]*eA*dT*dG*d[5mC]*dT*dT*dT*dG*d[5mC]*dA*dG*eA*eT*eG*eA*eG) [compound 546379] | 69 | –
546380 (antisense eG*e[5mC]*e[5mC]*eA*e[5mC]*dT*d[5mC]*dT*d[5mC]*d[5mC]*dA*dT*dG*d[5mC]*dT*eT*eT*eG*e[5mC]*eA) [compound 546380] | 81 | –
546381 (antisense eG*eA*eA*eG*eA*dT*dG*d[5mC]*d[5mC]*dA*d[5mC]*dT*d[5mC]*dT*d[5mC]*e[5mC]*eA*eT*eG*e[5mC]) [compound 546381] | 73 | –
546382 (antisense e[5mC]*eA*eA*eA*eG*dA*dA*dG*dA*dT*dG*d[5mC]*d[5mC]*dA*d[5mC]*eT*e[5mC]*eT*e[5mC]*e[5mC]) [compound 546382] | 58 | –
546383 (antisense eG*eG*eA*eT*eG*d[5mC]*dA*dA*dA*dG*dA*dA*dG*dA*dT*eG*e[5mC]*e[5mC]*eA*e[5mC]) [compound 546383] | 57 | –
546384 (antisense e[5mC]*eG*eT*e[5mC]*e[5mC]*dT*dT*dA*dG*dG*dA*dT*dG*d[5mC]*dA*eA*eA*eG*eA*eA) [compound 546384] | 81 | –
546385 (eA*eT*eT*eG*eT*d[5mC]*d[5mC]*dT*d[5mC]*dA*dG*d[5mC]*dA*dG*d[5mC]*eT*e[5mC]*eT*eG*eA; antisense) [compound 546385] | 67 | –
546386 (eA*eG*e[5mC]*e[5mC]*eA*dG*dA*d[5mC]*dA*dT*dT*dG*dT*d[5mC]*d[5mC]*eT*e[5mC]*eA*eG*e[5mC]; antisense) [compound 546386] | 78 | –
546387 (eA*eG*e[5mC]*eG*eG*dG*d[5mC]*dT*dT*d[5mC]*dA*dG*d[5mC]*d[5mC]*dA*eG*eA*e[5mC]*eA*eT; antisense) [compound 546387] | 77 | –
546388 (e[5mC]*eT*eG*eA*eA*dA*dG*d[5mC]*dG*dG*dG*d[5mC]*dT*dT*d[5mC]*eA*eG*e[5mC]*e[5mC]*eA; antisense) [compound 546388] | 71 | –
546389 (e[5mC]*eG*eT*eG*e[5mC]*dT*dG*dA*dA*dA*dG*d[5mC]*dG*dG*dG*e[5mC]*eT*eT*e[5mC]*eA; antisense) [compound 546389] | 71 | –
546390 (eG*eT*e[5mC]*eA*eG*d[5mC]*d[5mC]*d[5mC]*d[5mC]*dT*dG*dG*dT*dT*dA*e[5mC]*eG*eG*e[5mC]*eG; antisense) [compound 546390] | 70 | –
546391 (eG*e[5mC]*eA*eT*eT*dG*dT*d[5mC]*dA*dG*d[5mC]*d[5mC]*d[5mC]*d[5mC]*dT*eG*eG*eT*eT*eA; antisense) [compound 546391] | 54 | –
546392 (eG*eA*e[5mC]*e[5mC]*eT*d[5mC]*dG*d[5mC]*dA*dT*dT*dG*dT*d[5mC]*dA*eG*e[5mC]*e[5mC]*e[5mC]*e[5mC]; antisense) [compound 546392] | 72 | –
546393 (eT*e[5mC]*eT*e[5mC]*eA*dG*dT*dT*dG*d[5mC]*dG*dA*d[5mC]*d[5mC]*dT*e[5mC]*eG*e[5mC]*eA*eT; antisense) [compound 546393] | 77 | –
546394 (eG*eT*e[5mC]*eA*eT*dG*dG*dA*dG*dA*dT*d[5mC]*dT*d[5mC]*dA*eG*eT*eT*eG*e[5mC]; antisense) [compound 546394] | 71 | –
546395 (eT*eT*e[5mC]*eA*e[5mC]*dA*dA*d[5mC]*dA*d[5mC]*dA*d[5mC]*dA*dG*dT*e[5mC]*eA*eT*eG*eG; antisense) [compound 546395] | – | 72
546397 (eT*eT*eT*eT*eT*dT*dG*dA*dT*d[5mC]*dT*dT*dT*d[5mC]*dA*e[5mC]*e[5mC]*eA*eT*eT; antisense) [compound 546397] | – | 55
546406 (eT*eG*eT*e[5mC]*e[5mC]*dT*dG*dT*d[5mC]*dA*dA*d[5mC]*dA*dT*dA*eT*eT*e[5mC]*e[5mC]*eA; antisense) [compound 546406] | – | 80
546409 (eG*eG*eG*eT*eT*dT*d[5mC]*dT*dG*d[5mC]*d[5mC]*dA*dA*d[5mC]*dA*eG*eT*eT*eT*e[5mC]; antisense) [compound 546409] | – | 77
546411 (eA*eT*eA*eT*eT*dG*dA*d[5mC]*dT*dT*dT*dG*dG*dG*dT*eT*eT*e[5mC]*eT*eG; antisense) [compound 546411] | – | 56
546416 (e[5mC]*eT*eG*e[5mC]*eA*dG*dG*d[5mC]*dA*dA*dT*dA*dT*dT*dT*eT*eG*e[5mC]*eT*eT; antisense) [compound 546416] | – | 62
546418 (eA*eT*eG*eT*eG*dG*d[5mC]*dA*d[5mC]*dT*dG*d[5mC]*dA*dG*dG*e[5mC]*eA*eA*eT*eA; antisense) [compound 546418] | – | 72
546419 (eT*eT*e[5mC]*eT*eA*dA*dT*dG*dT*dG*dG*d[5mC]*dA*d[5mC]*dT*eG*e[5mC]*eA*eG*eG; antisense) [compound 546419] | – | 65

Substance | % inhibition (Table 11) [%] | % inhibition (Table 12) [%]
546421 (eT*e[5mC]*eA*eA*eG*d[5mC]*dT*dG*dT*dT*d[5mC]*dT*dA*dA*dT*eG*eT*eG*eG*e[5mC]; antisense) [compound 546421] | – | 71
546422 (eA*e[5mC]*eG*eG*eT*d[5mC]*dT*dT*d[5mC]*dA*dA*dG*d[5mC]*dT*dG*eT*eT*e[5mC]*eT*eA; antisense) [compound 546422] | – | 72
546425 (eG*eG*eT*e[5mC]*eA*dA*dT*d[5mC]*dT*dG*dA*d[5mC]*dT*dA*dG*eT*eG*eA*eA*eT; antisense) [compound 546425] | – | 69
546426 (eT*e[5mC]*eT*e[5mC]*eT*dG*dG*dT*d[5mC]*dA*dA*dT*d[5mC]*dT*dG*eA*e[5mC]*eT*eA*eG; antisense) [compound 546426] | – | 49
546432 (eG*eA*e[5mC]*e[5mC]*e[5mC]*d[5mC]*dA*dA*d[5mC]*dA*dG*dA*d[5mC]*dA*dG*e[5mC]*e[5mC]*e[5mC]*eA*e[5mC]; antisense) [compound 546432] | – | 62
546444 (e[5mC]*e[5mC]*eA*eG*eA*dA*dT*d[5mC]*dA*dT*dG*d[5mC]*d[5mC]*dT*dT*eG*eT*eG*eG*eG; antisense) [compound 546444] | – | 61
546447 (eG*eT*e[5mC]*eA*e[5mC]*d[5mC]*dA*dT*dA*dG*dA*d[5mC]*d[5mC]*d[5mC]*dA*eG*eA*eA*eT*e[5mC]; antisense) [compound 546447] | – | 68
546450 (eG*eT*eG*eG*e[5mC]*d[5mC]*d[5mC]*dT*d[5mC]*dT*dT*dA*dA*dG*dT*e[5mC]*eA*e[5mC]*e[5mC]*eA; antisense) [compound 546450] | – | 73
546453 (e[5mC]*eT*e[5mC]*eA*eT*dT*dG*dT*dT*dG*dT*dG*dT*dG*dG*e[5mC]*e[5mC]*e[5mC]*eT*e[5mC]; antisense) [compound 546453] | – | 82
546459 (eG*eT*eA*eG*e[5mC]*d[5mC]*dA*dT*dA*d[5mC]*dA*dT*d[5mC]*dT*dG*eA*eG*eG*eA*eA; antisense) [compound 546459] | – | 46
546461 (eA*eT*eG*eT*eT*dT*dA*dT*dT*dG*dT*dA*dG*d[5mC]*d[5mC]*eA*eT*eA*e[5mC]*eA; antisense) [compound 546461] | – | 53
546492 (e[5mC]*eT*e[5mC]*eG*e[5mC]*d[5mC]*dT*dT*dT*dG*dT*dG*dA*d[5mC]*dT*e[5mC]*eG*eA*eT*eT; antisense) [compound 546492] | – | 61
546493 (e[5mC]*eA*eT*eA*e[5mC]*dT*d[5mC]*dG*d[5mC]*d[5mC]*dT*dT*dT*dG*dT*eG*eA*e[5mC]*eT*e[5mC]; antisense) [compound 546493] | – | 35
546494 (eG*e[5mC]*eA*eT*eA*d[5mC]*dT*d[5mC]*dG*d[5mC]*d[5mC]*dT*dT*dT*dG*eT*eG*eA*e[5mC]*eT; antisense) [compound 546494] | – | 67
546495 (eT*eG*e[5mC]*eA*eT*dA*d[5mC]*dT*d[5mC]*dG*d[5mC]*d[5mC]*dT*dT*dT*eG*eT*eG*eA*e[5mC]; antisense) [compound 546495] | – | 65
546496 (eA*eT*eG*e[5mC]*eA*dT*dA*d[5mC]*dT*d[5mC]*dG*d[5mC]*d[5mC]*dT*dT*eT*eG*eT*eG*eA; antisense) [compound 546496] | – | 54
546497 (e[5mC]*eA*eT*eG*e[5mC]*dA*dT*dA*d[5mC]*dT*d[5mC]*dG*d[5mC]*d[5mC]*dT*eT*eT*eG*eT*eG; antisense) [compound 546497] | – | 56
546498 (e[5mC]*e[5mC]*eA*eT*eG*d[5mC]*dA*dT*dA*d[5mC]*dT*d[5mC]*dG*d[5mC]*d[5mC]*eT*eT*eT*eG*eT; antisense) [compound 546498] | – | 65
546499 (eT*e[5mC]*e[5mC]*eA*eT*dG*d[5mC]*dA*dT*dA*d[5mC]*dT*d[5mC]*dG*d[5mC]*e[5mC]*eT*eT*eT*eG; antisense) [compound 546499] | – | 20
546500 (eT*eT*e[5mC]*e[5mC]*eA*dT*dG*d[5mC]*dA*dT*dA*d[5mC]*dT*d[5mC]*dG*e[5mC]*e[5mC]*eT*eT*eT; antisense) [compound 546500] | – | 46
546501 (eT*eT*eT*e[5mC]*e[5mC]*dA*dT*dG*d[5mC]*dA*dT*dA*d[5mC]*dT*d[5mC]*eG*e[5mC]*e[5mC]*eT*eT; antisense) [compound 546501] | – | 53
546502 (eG*eA*eT*eT*eT*dT*d[5mC]*d[5mC]*dA*dT*dG*d[5mC]*dA*dT*dA*e[5mC]*eT*e[5mC]*eG*e[5mC]; antisense) [compound 546502] | – | 37
546503 (eG*eT*eG*eA*eT*dG*d[5mC]*dG*dA*dT*dT*dT*dT*d[5mC]*d[5mC]*eA*eT*eG*e[5mC]*eA; antisense) [compound 546503] | – | 53
